Source: patent US12648892B2, “Emergency eye wash” (Lebrun Labs LLC, priority 2024, dated 2026)
“And” between values parts separate entries of the source, which are not always exact repeats. Equal entries are not always repeated. “Also recorded” adds a separate entry of the source. Where two headings read alike, the source gives them in different places.

How the values were obtained:
[1] = tested on: corneal stromal cell (keratocytes) nuclei; experiment: Wash bottle study (500-mL bottle, active wash): TUNEL counts and depth of damage (DoD); type: cell-based; conditions: eyes exposed to 32% sodium hypochlorite, then actively washed 15 min with 500 mL
Description: (§1) Whole New Zealand White rabbit eyes were used Prior to exposure a 10-mm internal dosing ring (FIG. 12A, part of the IVD kit) was placed over the central cornea that was then exposed to NaOCl.
(§2) Prior to each experiment (<1 h), NaOCl (CASRN 7681-52-9, Sigma-Aldrich, St. Louis, MO) was freshly diluted in sterile deionized water, mixed by five tube inversions prior to each application, and applied directly to the eyes (corneas) by transferring 100 μL with a micropipette into the dosing ring (FIG. 12A); the corneas were then exposed to this solution for exactly 1 min. Immediately after exposure, corneas were rinsed for exactly 30 s by forcefully dispensing 20 mL saline (9 g/L NaCl) from an eye rinsing syringe (part of the IVD kit). The pH of the 32% NaOCl was measured using a Fisherbrand™ Accumet™ AB150 pH benchtop meter (Fisher Scientific, Waltham, MA).
A 100-ml beaker or 500-mL emergency eye wash bottle (FIG. 12B) was used to prepare the AA solution and wash the eyes (Lebrun and Nguyen, 2024). These containers hold a ready-to-use eye wash buffer (EWB) solution composed of potassium chloride (CASRN 7447-40-7, 2.7 mM; Fisher Scientific), potassium phosphate monobasic (CASRN 7778-77-0, 1.5 mM; Fisher Scientific), sodium chloride (CASRN 7647-14-5, 137.9 mM; Fisher Scientific), sodium phosphate dibasic (CASRN 7782-85-6, 8.1 mM; Sigma Aldrich), deionized water (ReadyRefresh, Stamford, CT), 1% dextran (CASRN 9004-54-0; Sigma Aldrich), and 1% bovine serum albumin (CASRN 9048-46-8; Sigma Aldrich). Before use, different amounts of powdered AA (CASRN 50-81-7; Sigma Aldrich) are dispersed into the liquid component and rapidly mixed to achieve a predefined concentration (Lebrun et al., 2021c, 2021d, 2021e) to form complete EWB+AA. […] The pH of the liquid portion of the wash solution is adjusted to 7.2 with HCl to ensure that the final wash solution for the 0.2% powdered AA reaches a pH of 6.99±0.5. For the 10% AA condition, the pH was further adjusted to 6.99±0.5 with 1 N NaOH. For the EWB only condition, the pH was adjusted to 6.99±0.5 with 1 N HCl. For the wash step, eyes were either passively soaked in beakers (100-mL conditions) or washed with an eyewash bottle (500-mL conditions) for the indicated times. The eyewash bottle allows for forceful spraying and recycling of the 500-mL solution (Lebrun and Nguyen, 2024). While this bottle can be used in vivo or in vitro, for the in vitro study described here, the eyes were placed cornea-side down in the well at the top of the bottle, and the bottles were compressed so that a jet of solution washed over the eye (see FIG. 12B).
The corneas of whole eyes were exposed to either 100 μL of 32% NaOCl for 1 min or 100 μL deionized sterile water for 1 min (control condition) in a dosing ring. Eyes were then rinsed, and all eyes were washed using 500-mL wash bottles (FIG. 12B). Washing was with sterile tap water (municipal water, Anaheim, CA, 0.22-micron pore size filtered), EWB, or EWB+0.2% AA. After “washing,” eyes were processed following the “postexposure” steps described below.
After washing, eyes were placed in fresh postexposure wells (part of the IVD kit) containing approximately 1.5 mL OM added to the level of the limbus. Eyes were then placed back into a humidified, 5% CO2, 37° C. incubator for 24 h. Corneas were then removed by dissection, placed in 4% paraformaldehyde in phosphate-buffered saline (fixative; Boston BioProducts, Inc., Milford, MA), and stored at 4° C.
After a minimum of 24 h in fixative, corneas were cut in half and infiltrated with 30% sucrose (Capella et al., 1965), and the tissues were then embedded in Tissue-Tek® O.C.T. compound (Sakura Finetek, Torrance, CA), snap frozen in liquid nitrogen, and stored in an ultralow freezer (−80° C., New Brunswick Scientific, Hamburg, Germany). […]

[2] = tested on: cornea; conditions: cited from earlier work
[3] = tested on: corneal stromal cell (keratocytes) nuclei; experiment: NaOCl titration study, TUNEL positive nuclei counts; type: cell-based; conditions: New Zealand White, rabbit, 1 min, 8 %
Description: as §1
as §2, with “Immediately after exposure, corneas were rinsed for exactly 30 s by forcefully dispensing 20 mL saline (9 g/L NaCl) from an eye rinsing syringe (part of the IVD kit).” left out, “MA). […]” for “MA).”
Stained sections were viewed using a Leica DMRE fluorescence microscope (Leica Microsystems Inc., Buffalo Grove, IL). […] An L5 Fluorescence Filter Cube (Leica Microsystems Inc., Buffalo Grove, IL) was used for TUNEL and DoD imaging. Images were processed and analyzed using ImageJ software, version 1.54 (Schneider et al., 2012). […] Three corneal cryosections, each approximately 2.3 mm long and 0.5-0.9 mm wide (depending on swelling), were measured for each eye. To count TUNEL-positive nuclei, the number of discrete TUNEL-positive nuclei in the stroma that meet the size parameters associated with a keratocyte nucleus were recorded for each section using ImageJ software. […]

[4] = pH measurement of solutions; type: physicochemical; conditions: 32% NaOCl
Description: In another study, how quickly washing must be initiated was studied. AA wash was formulated as described above and used just after injury, 10 minutes after injury or 2 hours after injury. […] However this solution took 3.5 hours of rapid mixing to fully go into solution and the another 1.5 hours to adjust the pH which initially feel below to a pH of 3.25.
as §2

Water
Depth of Damage (DoD), AVG ± SE (overall average) [1]: 59.6 ± 3.6%
Depth of Damage (DoD), S. AVG ± SE (section average per eye) [1]: 44.2 ± 2.8% and 68.5 ± 0.5% and 60.9 ± 0.7%
TUNEL positive nuclei count, AVG ± SE (overall average) [1]: 254.9 ± 17.8
TUNEL positive nuclei count, S. AVG ± SE (section average per eye) [1]: 231.0 ± 4.0 and 238.0 ± 2.6 and 287.7 ± 4.1
TUNEL positive nuclei count, AVG ± SE (overall average) ([1]; listed as tap water): 254.9±17.8
Depth of Damage (DoD), AVG ± SE (overall average) ([1]; listed as water): 59.6±3.6%
Depth of Damage (DoD), S. AVG ± SE (section average per eye) ([1]; listed as water): 44.2±2.8% and 68.5±0.5% and 60.9±0.7%
TUNEL positive nuclei count, AVG ± SE (overall average) ([1]; listed as water): 254.9±17.8
TUNEL positive nuclei count, S. AVG ± SE (section average per eye) ([1]; listed as water): 231.0±4.0 and 238.0±2.6 and 287.7±4.1
Depth of Damage (DoD), Section A ([1]; per eye): 47.0% and 68.4% and 62.3%
Depth of Damage (DoD), Section B ([1]; per eye): 41.4% and 69.4% and 59.8%
TUNEL positive nuclei count, Section A ([1]; per eye): 227.0 and 234.0 and 289.0
TUNEL positive nuclei count, Section B ([1]; per eye): 235.0 and 243.0 and 280.0
Depth of Damage (DoD), Section A ([1]; per eye, listed as water): 47.0% and 68.4% and 62.3%
Depth of Damage (DoD), Section B ([1]; per eye, listed as water): 41.4% and 69.4% and 59.8%
Depth of Damage (DoD), Section C ([1]; per eye, listed as water): 67.6% and 60.7%
TUNEL positive nuclei count, Section A ([1]; per eye, listed as water): 227.0 and 234.0 and 289.0
TUNEL positive nuclei count, Section B ([1]; per eye, listed as water): 235.0 and 243.0 and 280.0
TUNEL positive nuclei count, Section C ([1]; per eye, listed as water): 237.0 and 294.0

O=C1O[C@H]([C@@H](O)CO)C(O)=C1O [AA, ascorbic acid]
effect on corneal ulceration ([2]; subcutaneous injection of 15% AA solution within 3 h of the burn, once daily): ineffective; also recorded: not effective
effect on corneal ulceration ([2]; topical 10% AA eye drop pH 7.2, 2 h after the burn and hourly for 14 h per day): reduced corneal ulceration

OCl [NaOCl, sodium hypochlorite]
TUNEL positive nuclei count, AVG ± SE (overall average) [3]: 3.1 ± 3.1
pH [4]: 12.04 and 12
